Results taken from the kinase profiling compilation of Christmann-Franck et al. (2016).

How the values were obtained:
Experiment in all cases: radiometric filter-binding kinase assay
BRSK2 (human) = BRSK2 (human) (UniProt Q8IWQ3)
FGFR1 (human) = FGFR1 (human) (UniProt P11362)
MYLK (human) = MYLK (human) (UniProt Q15746)
[1] = tested on: RPS6KB1 (human), P23443 [T412E]
AURKA (human) = AURKA (human) (UniProt O14965)
CSK (human) = CSK (human) (UniProt P41240)
MAPKAPK3 (human) = MAPKAPK3 (human) (UniProt Q16644)
FLT1 (human) = FLT1 (human) (UniProt P17948)
RPS6KA3 KD1 KD2 (human) = RPS6KA3 KD1 KD2 (human) (UniProt P51812)
RIPK2 (human) = RIPK2 (human) (UniProt O43353)
CSNK1D (human) = CSNK1D (human) (UniProt P48730)
EPHB2 (human) = EPHB2 (human) (UniProt P29323)
CLK2 (human) = CLK2 (human) (UniProt P49760)
EPHA4 (human) = EPHA4 (human) (UniProt P54764)
MARK4 (human) = MARK4 (human) (UniProt Q96L34)
TBK1 (human) = TBK1 (human) (UniProt Q9UHD2)
INSR (human) = INSR (human) (UniProt P06213)
MELK (human) = MELK (human) (UniProt Q14680)
MAP3K11 (human) = MAP3K11 (human) (UniProt Q16584)
IRAK4 (human) = IRAK4 (human) (UniProt Q9NWZ3)
MAPK12 (human) = MAPK12 (human) (UniProt P53778)
PLK1 (human) = PLK1 (human) (UniProt P53350)
[2] = tested on: PAK2 (human), Q13177 [T402E]
SYK (human) = SYK (human) (UniProt P43405)
[3] = tested on: SGK1 (human), O00141 [S422D]
INSRR (human) = INSRR (human) (UniProt P14616)
MAPK8 (human) = MAPK8 (human) (UniProt P45983)
JAK2 JH1 JH2 (human) = JAK2 JH1 JH2 (human) (UniProt O60674)
TTK (human) = TTK (human) (UniProt P33981)
PIM1 (human) = PIM1 (human) (UniProt P11309)
MAP3K7 TAB1 (human) = MAP3K7 TAB1 (human) (UniProt Q15750+O43318)
CDK2 CCNA2 (human) = CDK2 CCNA2 (human) (UniProt P20248+P24941)
BRSK1 (human) = BRSK1 (human) (UniProt Q8TDC3)
PIM3 (human) = PIM3 (human) (UniProt Q86V86)
MAP2K2 (human) = MAP2K2 (human) (UniProt P36507)

RPS6KA3 KD1 KD2 (human), sequence (P51812 whole entry, looked up): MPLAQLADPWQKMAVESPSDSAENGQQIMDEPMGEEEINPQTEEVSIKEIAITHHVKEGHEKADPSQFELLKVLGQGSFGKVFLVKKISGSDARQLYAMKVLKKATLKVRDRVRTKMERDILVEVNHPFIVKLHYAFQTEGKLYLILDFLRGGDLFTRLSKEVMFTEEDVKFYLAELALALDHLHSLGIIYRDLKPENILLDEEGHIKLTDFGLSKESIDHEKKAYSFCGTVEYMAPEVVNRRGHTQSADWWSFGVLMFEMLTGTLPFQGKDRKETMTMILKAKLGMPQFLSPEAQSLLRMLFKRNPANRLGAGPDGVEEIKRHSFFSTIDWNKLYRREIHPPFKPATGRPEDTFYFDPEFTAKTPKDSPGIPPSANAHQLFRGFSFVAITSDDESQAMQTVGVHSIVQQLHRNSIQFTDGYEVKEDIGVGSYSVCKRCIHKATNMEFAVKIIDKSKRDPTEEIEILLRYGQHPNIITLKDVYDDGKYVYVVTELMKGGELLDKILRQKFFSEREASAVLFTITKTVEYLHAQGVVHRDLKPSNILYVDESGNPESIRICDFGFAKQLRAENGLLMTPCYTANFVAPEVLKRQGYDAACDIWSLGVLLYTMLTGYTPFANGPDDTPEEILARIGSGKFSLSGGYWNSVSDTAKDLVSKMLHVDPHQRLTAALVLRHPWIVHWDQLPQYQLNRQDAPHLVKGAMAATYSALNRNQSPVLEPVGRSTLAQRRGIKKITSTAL
IRAK4 (human), sequence (Q9NWZ3 whole entry, looked up): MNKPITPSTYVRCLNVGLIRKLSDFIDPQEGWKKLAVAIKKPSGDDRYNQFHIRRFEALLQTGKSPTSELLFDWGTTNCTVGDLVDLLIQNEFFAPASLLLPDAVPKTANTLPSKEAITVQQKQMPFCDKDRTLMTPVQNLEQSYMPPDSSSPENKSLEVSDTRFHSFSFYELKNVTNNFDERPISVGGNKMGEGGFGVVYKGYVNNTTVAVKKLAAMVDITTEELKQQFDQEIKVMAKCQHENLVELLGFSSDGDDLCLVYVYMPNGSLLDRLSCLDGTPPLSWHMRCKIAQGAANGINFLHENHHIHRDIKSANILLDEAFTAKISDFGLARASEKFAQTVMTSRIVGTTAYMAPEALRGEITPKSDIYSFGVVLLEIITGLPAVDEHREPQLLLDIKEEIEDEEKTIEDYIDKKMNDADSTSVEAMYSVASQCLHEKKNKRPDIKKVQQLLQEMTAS
RIPK2 (human), sequence (O43353 whole entry, looked up): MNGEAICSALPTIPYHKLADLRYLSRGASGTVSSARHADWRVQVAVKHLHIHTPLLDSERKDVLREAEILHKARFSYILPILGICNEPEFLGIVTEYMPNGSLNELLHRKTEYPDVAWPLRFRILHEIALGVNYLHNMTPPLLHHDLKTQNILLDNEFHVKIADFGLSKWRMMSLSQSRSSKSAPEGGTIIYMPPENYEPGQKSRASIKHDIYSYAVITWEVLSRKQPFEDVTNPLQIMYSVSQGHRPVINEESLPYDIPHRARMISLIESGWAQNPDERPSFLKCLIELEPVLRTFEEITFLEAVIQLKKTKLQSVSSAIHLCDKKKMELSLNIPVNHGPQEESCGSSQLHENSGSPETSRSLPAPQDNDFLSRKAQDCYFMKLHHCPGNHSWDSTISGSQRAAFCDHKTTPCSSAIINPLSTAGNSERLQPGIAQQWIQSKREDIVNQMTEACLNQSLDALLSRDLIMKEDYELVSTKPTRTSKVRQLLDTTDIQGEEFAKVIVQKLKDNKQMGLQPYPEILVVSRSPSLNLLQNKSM
CLK2 (human), sequence (P49760 whole entry, looked up): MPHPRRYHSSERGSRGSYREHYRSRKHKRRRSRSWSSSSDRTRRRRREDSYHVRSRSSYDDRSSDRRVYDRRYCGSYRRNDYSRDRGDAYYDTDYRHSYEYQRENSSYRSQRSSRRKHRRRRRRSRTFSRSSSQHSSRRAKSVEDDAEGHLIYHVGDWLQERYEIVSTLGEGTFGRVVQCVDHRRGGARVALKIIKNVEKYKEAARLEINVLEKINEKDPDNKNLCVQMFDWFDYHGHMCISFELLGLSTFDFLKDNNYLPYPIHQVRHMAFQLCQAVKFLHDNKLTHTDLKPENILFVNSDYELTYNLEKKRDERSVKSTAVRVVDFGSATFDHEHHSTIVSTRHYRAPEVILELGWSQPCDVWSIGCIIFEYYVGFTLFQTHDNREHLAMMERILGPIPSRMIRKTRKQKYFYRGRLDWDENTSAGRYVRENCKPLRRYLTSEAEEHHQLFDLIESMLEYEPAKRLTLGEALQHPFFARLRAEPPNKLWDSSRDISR
INSR (human), sequence (P06213 whole entry, looked up): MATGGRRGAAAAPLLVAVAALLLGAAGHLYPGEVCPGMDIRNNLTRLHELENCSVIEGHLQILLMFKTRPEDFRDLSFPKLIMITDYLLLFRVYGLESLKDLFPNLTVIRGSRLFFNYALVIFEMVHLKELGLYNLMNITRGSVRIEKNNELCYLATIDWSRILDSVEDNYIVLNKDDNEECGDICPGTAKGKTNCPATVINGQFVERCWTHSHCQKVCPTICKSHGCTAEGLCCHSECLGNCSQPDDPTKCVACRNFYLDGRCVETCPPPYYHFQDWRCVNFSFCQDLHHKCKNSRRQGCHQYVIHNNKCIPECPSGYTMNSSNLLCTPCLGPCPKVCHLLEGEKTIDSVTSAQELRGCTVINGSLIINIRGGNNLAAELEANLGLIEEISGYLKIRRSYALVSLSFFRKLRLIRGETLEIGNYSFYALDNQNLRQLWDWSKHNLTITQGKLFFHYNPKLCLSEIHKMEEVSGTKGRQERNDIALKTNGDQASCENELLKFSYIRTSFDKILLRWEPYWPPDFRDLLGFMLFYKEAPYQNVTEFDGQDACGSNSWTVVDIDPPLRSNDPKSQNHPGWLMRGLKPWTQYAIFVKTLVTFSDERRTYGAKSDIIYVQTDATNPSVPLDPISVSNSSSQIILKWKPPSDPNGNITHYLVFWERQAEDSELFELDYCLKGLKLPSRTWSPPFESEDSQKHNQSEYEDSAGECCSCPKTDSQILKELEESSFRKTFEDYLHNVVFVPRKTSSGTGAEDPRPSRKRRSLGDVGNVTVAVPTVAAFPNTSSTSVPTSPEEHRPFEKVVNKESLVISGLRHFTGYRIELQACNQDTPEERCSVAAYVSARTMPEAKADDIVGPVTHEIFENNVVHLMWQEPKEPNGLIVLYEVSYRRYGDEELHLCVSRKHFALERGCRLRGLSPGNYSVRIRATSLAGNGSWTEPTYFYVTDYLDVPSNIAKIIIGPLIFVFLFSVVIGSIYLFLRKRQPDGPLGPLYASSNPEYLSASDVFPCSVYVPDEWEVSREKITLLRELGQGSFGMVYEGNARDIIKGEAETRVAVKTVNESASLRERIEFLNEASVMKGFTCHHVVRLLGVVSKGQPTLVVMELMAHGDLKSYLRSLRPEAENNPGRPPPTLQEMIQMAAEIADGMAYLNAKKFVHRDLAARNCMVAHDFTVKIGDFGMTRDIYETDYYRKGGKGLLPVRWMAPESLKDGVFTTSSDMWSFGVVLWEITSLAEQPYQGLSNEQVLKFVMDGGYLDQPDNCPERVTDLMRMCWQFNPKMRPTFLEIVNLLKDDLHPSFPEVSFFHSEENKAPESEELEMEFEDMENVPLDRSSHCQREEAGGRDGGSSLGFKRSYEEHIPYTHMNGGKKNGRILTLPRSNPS
CSK (human), sequence (P41240 whole entry, looked up): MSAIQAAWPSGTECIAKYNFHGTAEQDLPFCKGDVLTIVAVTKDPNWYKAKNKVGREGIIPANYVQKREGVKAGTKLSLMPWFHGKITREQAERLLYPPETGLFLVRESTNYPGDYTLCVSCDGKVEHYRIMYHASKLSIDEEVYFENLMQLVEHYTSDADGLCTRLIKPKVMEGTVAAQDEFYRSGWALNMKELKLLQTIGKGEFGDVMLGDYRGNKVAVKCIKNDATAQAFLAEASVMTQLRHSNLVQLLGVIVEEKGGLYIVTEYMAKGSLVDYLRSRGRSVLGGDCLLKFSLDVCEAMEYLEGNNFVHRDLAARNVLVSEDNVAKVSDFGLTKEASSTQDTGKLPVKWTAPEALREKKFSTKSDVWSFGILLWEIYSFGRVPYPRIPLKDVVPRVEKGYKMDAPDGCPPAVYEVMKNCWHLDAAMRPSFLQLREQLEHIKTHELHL
BRSK2 (human), sequence (Q8IWQ3 whole entry, looked up): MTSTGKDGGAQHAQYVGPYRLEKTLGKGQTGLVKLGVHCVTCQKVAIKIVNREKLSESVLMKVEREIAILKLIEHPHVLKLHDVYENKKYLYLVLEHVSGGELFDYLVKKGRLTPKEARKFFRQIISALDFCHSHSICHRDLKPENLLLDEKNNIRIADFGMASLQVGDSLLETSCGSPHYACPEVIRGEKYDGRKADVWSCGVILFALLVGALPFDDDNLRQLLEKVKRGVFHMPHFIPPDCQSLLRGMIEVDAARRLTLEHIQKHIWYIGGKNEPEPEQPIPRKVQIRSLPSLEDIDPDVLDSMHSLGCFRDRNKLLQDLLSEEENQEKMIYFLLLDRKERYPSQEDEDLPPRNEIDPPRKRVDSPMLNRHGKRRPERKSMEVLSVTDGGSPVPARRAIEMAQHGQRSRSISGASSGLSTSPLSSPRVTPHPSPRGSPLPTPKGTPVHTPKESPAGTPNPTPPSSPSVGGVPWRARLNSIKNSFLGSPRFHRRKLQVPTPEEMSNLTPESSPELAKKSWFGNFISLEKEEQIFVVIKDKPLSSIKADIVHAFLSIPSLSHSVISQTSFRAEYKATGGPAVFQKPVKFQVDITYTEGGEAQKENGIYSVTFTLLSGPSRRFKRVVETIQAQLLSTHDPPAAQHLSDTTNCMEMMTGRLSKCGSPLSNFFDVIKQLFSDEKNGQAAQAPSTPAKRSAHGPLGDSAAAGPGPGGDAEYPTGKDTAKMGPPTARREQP

## COc1cc(O)c2c(c1)/C=C/C[C@H](O)[C@H](O)C(=O)/C=C\C[C@H](C)OC2=O
BRSK2 (human); compound 0.1 µM
  residual activity: 84%
BRSK2 (human); compound 1.0 µM
  residual activity: 88%
FGFR1 (human); compound 1.0 µM
  residual activity: 87%
MYLK (human); compound 0.1 µM
  residual activity: 108%
MYLK (human); compound 1.0 µM
  residual activity: 80%
[1]; compound 0.1 µM
  residual activity: 112%
[1]; compound 1.0 µM
  residual activity: 82%
AURKA (human); compound 1.0 µM
  residual activity: 105%
CSK (human); compound 0.1 µM
  residual activity: 118%
CSK (human); compound 1.0 µM
  residual activity: 56%
MAPKAPK3 (human); compound 0.1 µM
  residual activity: 113%
MAPKAPK3 (human); compound 1.0 µM
  residual activity: 94%
FLT1 (human); compound 0.1 µM
  residual activity: 8%
FLT1 (human); compound 1.0 µM
  residual activity: 13%
RPS6KA3 KD1 KD2 (human); compound 0.1 µM
  residual activity: 106%
RPS6KA3 KD1 KD2 (human); compound 1.0 µM
  residual activity: 70%
RIPK2 (human); compound 0.1 µM
  residual activity: 103%
RIPK2 (human); compound 1.0 µM
  residual activity: 39%
CSNK1D (human); compound 0.1 µM
  residual activity: 102%
CSNK1D (human); compound 1.0 µM
  residual activity: 104%
EPHB2 (human); compound 1.0 µM
  residual activity: 75%
CLK2 (human); compound 0.1 µM
  residual activity: 96%
CLK2 (human); compound 1.0 µM
  residual activity: 90%
EPHA4 (human); compound 0.1 µM
  residual activity: 91%
EPHA4 (human); compound 1.0 µM
  residual activity: 46%
MARK4 (human); compound 0.1 µM
  residual activity: 107%
MARK4 (human); compound 1.0 µM
  residual activity: 86%
TBK1 (human); compound 0.1 µM
  residual activity: 105%
TBK1 (human); compound 1.0 µM
  residual activity: 102%
INSR (human); compound 0.1 µM
  residual activity: 110%
INSR (human); compound 1.0 µM
  residual activity: 94%
MELK (human); compound 0.1 µM
  residual activity: 95%
MELK (human); compound 1.0 µM
  residual activity: 94%
MAP3K11 (human); compound 0.1 µM
  residual activity: 114%
MAP3K11 (human); compound 1.0 µM
  residual activity: 79%
IRAK4 (human); compound 0.1 µM
  residual activity: 99%
IRAK4 (human); compound 1.0 µM
  residual activity: 28%
MAPK12 (human); compound 0.1 µM
  residual activity: 99%
MAPK12 (human); compound 1.0 µM
  residual activity: 92%
PLK1 (human); compound 0.1 µM
  residual activity: 103%
PLK1 (human); compound 1.0 µM
  residual activity: 100%
[2]; compound 0.1 µM
  residual activity: 104%
[2]; compound 1.0 µM
  residual activity: 110%
SYK (human); compound 0.1 µM
  residual activity: 88%
SYK (human); compound 1.0 µM
  residual activity: 77%
[3]; compound 0.1 µM
  residual activity: 106%
[3]; compound 1.0 µM
  residual activity: 95%
INSRR (human); compound 1.0 µM
  residual activity: 96%
MAPK8 (human); compound 0.1 µM
  residual activity: 90%
MAPK8 (human); compound 1.0 µM
  residual activity: 52%
JAK2 JH1 JH2 (human); compound 0.1 µM
  residual activity: 108%
JAK2 JH1 JH2 (human); compound 1.0 µM
  residual activity: 75%
TTK (human); compound 0.1 µM
  residual activity: 104%
TTK (human); compound 1.0 µM
  residual activity: 91%
PIM1 (human); compound 0.1 µM
  residual activity: 102%
PIM1 (human); compound 1.0 µM
  residual activity: 72%
MAP3K7 TAB1 (human); compound 0.1 µM
  residual activity: 5%
MAP3K7 TAB1 (human); compound 1.0 µM
  residual activity: 3%
CDK2 CCNA2 (human); compound 0.1 µM
  residual activity: 119%
CDK2 CCNA2 (human); compound 1.0 µM
  residual activity: 88%
BRSK1 (human); compound 0.1 µM
  residual activity: 113%
BRSK1 (human); compound 1.0 µM
  residual activity: 90%
PIM3 (human); compound 0.1 µM
  residual activity: 126%
PIM3 (human); compound 1.0 µM
  residual activity: 80%
MAP2K2 (human); compound 0.1 µM
  residual activity: 12%
MAP2K2 (human); compound 1.0 µM
  residual activity: 3%

## O=C(O)c1ccc(-c2c[nH]c3ncc(-c4ccccc4)cc23)cc1C1CCCC1
BRSK2 (human); compound 0.1 µM
  residual activity: 86%
BRSK2 (human); compound 1.0 µM
  residual activity: 61%
BRSK2 (human); compound 10.0 µM
  residual activity: 20%
FGFR1 (human); compound 0.1 µM
  residual activity: 99%
FGFR1 (human); compound 1.0 µM
  residual activity: 77%
FGFR1 (human); compound 10.0 µM
  residual activity: 27%
MYLK (human); compound 0.1 µM
  residual activity: 87%
MYLK (human); compound 1.0 µM
  residual activity: 102%
MYLK (human); compound 10.0 µM
  residual activity: 87%
[1]; compound 0.1 µM
  residual activity: 100%
[1]; compound 1.0 µM
  residual activity: 74%
[1]; compound 10.0 µM
  residual activity: 24%
AURKA (human); compound 0.1 µM
  residual activity: 78%
CSK (human); compound 0.1 µM
  residual activity: 99%
CSK (human); compound 1.0 µM
  residual activity: 96%
CSK (human); compound 10.0 µM
  residual activity: 98%
MAPKAPK3 (human); compound 0.1 µM
  residual activity: 101%
FLT1 (human); compound 0.1 µM
  residual activity: 98%
FLT1 (human); compound 1.0 µM
  residual activity: 63%
FLT1 (human); compound 10.0 µM
  residual activity: 15%
RPS6KA3 KD1 KD2 (human); compound 0.1 µM
  residual activity: 96%
RPS6KA3 KD1 KD2 (human); compound 1.0 µM
  residual activity: 97%
RIPK2 (human); compound 0.1 µM
  residual activity: 55%
CSNK1D (human); compound 0.1 µM
  residual activity: 70%
CSNK1D (human); compound 1.0 µM
  residual activity: 12%
CSNK1D (human); compound 10.0 µM
  residual activity: 3%
EPHB2 (human); compound 0.1 µM
  residual activity: 86%
CLK2 (human); compound 0.1 µM
  residual activity: 65%
EPHA4 (human); compound 0.1 µM
  residual activity: 103%
MARK4 (human); compound 0.1 µM
  residual activity: 110%
TBK1 (human); compound 0.1 µM
  residual activity: 86%
TBK1 (human); compound 1.0 µM
  residual activity: 70%
TBK1 (human); compound 10.0 µM
  residual activity: 27%
INSR (human); compound 0.1 µM
  residual activity: 111%
INSR (human); compound 1.0 µM
  residual activity: 100%
INSR (human); compound 10.0 µM
  residual activity: 68%
MELK (human); compound 0.1 µM
  residual activity: 100%
MELK (human); compound 1.0 µM
  residual activity: 27%
MELK (human); compound 10.0 µM
  residual activity: 8%
MAP3K11 (human); compound 0.1 µM
  residual activity: 75%
MAP3K11 (human); compound 1.0 µM
  residual activity: 33%
MAP3K11 (human); compound 10.0 µM
  residual activity: 5%
IRAK4 (human); compound 0.1 µM
  residual activity: 20%
IRAK4 (human); compound 1.0 µM
  residual activity: 12%
IRAK4 (human); compound 10.0 µM
  residual activity: 12%
MAPK12 (human); compound 0.1 µM
  residual activity: 106%
MAPK12 (human); compound 1.0 µM
  residual activity: 104%
MAPK12 (human); compound 10.0 µM
  residual activity: 35%
PLK1 (human); compound 0.1 µM
  residual activity: 93%
PLK1 (human); compound 1.0 µM
  residual activity: 31%
PLK1 (human); compound 10.0 µM
  residual activity: 5%
[2]; compound 0.1 µM
  residual activity: 99%
SYK (human); compound 0.1 µM
  residual activity: 99%
SYK (human); compound 1.0 µM
  residual activity: 66%
SYK (human); compound 10.0 µM
  residual activity: 12%
[3]; compound 0.1 µM
  residual activity: 56%
[3]; compound 1.0 µM
  residual activity: 9%
[3]; compound 10.0 µM
  residual activity: 1%
INSRR (human); compound 0.1 µM
  residual activity: 98%
INSRR (human); compound 1.0 µM
  residual activity: 58%
INSRR (human); compound 10.0 µM
  residual activity: 26%
MAPK8 (human); compound 0.1 µM
  residual activity: 81%
MAPK8 (human); compound 1.0 µM
  residual activity: 74%
MAPK8 (human); compound 10.0 µM
  residual activity: 39%
JAK2 JH1 JH2 (human); compound 0.1 µM
  residual activity: 24%
TTK (human); compound 0.1 µM
  residual activity: 89%
TTK (human); compound 1.0 µM
  residual activity: 79%
TTK (human); compound 10.0 µM
  residual activity: 46%
PIM1 (human); compound 0.1 µM
  residual activity: 91%
PIM1 (human); compound 1.0 µM
  residual activity: 62%
PIM1 (human); compound 10.0 µM
  residual activity: 26%
MAP3K7 TAB1 (human); compound 0.1 µM
  residual activity: 115%
CDK2 CCNA2 (human); compound 0.1 µM
  residual activity: 106%
CDK2 CCNA2 (human); compound 1.0 µM
  residual activity: 1%
CDK2 CCNA2 (human); compound 10.0 µM
  residual activity: 0%
BRSK1 (human); compound 0.1 µM
  residual activity: 84%
PIM3 (human); compound 0.1 µM
  residual activity: 90%
PIM3 (human); compound 1.0 µM
  residual activity: 86%
PIM3 (human); compound 10.0 µM
  residual activity: 45%
MAP2K2 (human); compound 0.1 µM
  residual activity: 93%
